Our source for the IC50 values is US20260176282A1, “BICYCLIC COMPOUNDS AS CDK INHIBITORS” (BEONE MEDICINES I GMBH, priority 2023, published 2026).

The target of one test is CDK2/Cyclin E1 (Homo sapiens, UniProt P24941). Description: CDK2/Cyclin E1 TR-FRET biochemical assay (1 mM ATP). The following applies: 90 minutes reaction. Here is the method: (§1) Compounds disclosed herein were tested for inhibition of CDK2/Cyclin E1 or CDK1/Cyclin B1 kinase in an assay based on the time-resolved fluorescence-resonance energy transfer (TR-FRET) methodology. The assay was carried out in 384-well low volume black plates in a reaction mixture containing CDK2/Cyclin E1 or CDK1/Cyclin B1, 1 mM ATP for CDK2/Cyclin E1 and CDK1/Cyclin B1, 0.15 μM Rb (Ser780)-biotin substrate and 0-10 μM compound in buffer containing 50 mM HEPES pH7.0, 0.02% NaN3, 0.01% BSA, 0.1 mM Orthovanadate, 50 mM MgCl2, 1 mM DTT and 0.005% Tween-20. The kinase was incubated with compound for 60 minutes at room temperature and the reaction was initiated by the addition of ATP and Rb (Ser780)-biotin substrate. After reaction at room temperature for 90 minutes, an equal volume of stop/detection solution was added according to the manufacture's instruction (Cisbio Bioassays). The stop/detection solution contained Streptavidin-XL665 and Anti-pRb (Ser780) mAb-Eu Cryptate in Detection buffer (Cisbio Bioassays). Plates were incubated at room temperature for 60 minutes, and the TR-FRET signals (ex337 nm, em665 nm/620 nm) were recorded on a PHERAstar FSX plate reader (BMG Labtech). The inhibition percentage of CDK2/Cyclin E1 or CDK1/Cyclin B1 kinase activity in presence of increasing concentrations of compounds was calculated based on the ratio of fluorescence at 665 nm to that at 620 nm. The IC50 for each compound was derived from fitting the data to the four-parameter logistic equation by Dotmatics.

The next test addresses CDK1/Cyclin B1 (Homo sapiens, UniProt P06493). Kind of test: CDK1/Cyclin B1 TR-FRET biochemical assay (1 mM ATP). The note with it: 90 minutes reaction. As to the method:
as §1
(In general: TR-FRET usually uses a lanthanide donor and a delayed reading to cut background.)

In a further test the test system is HEK-293 cells. Kind of test: HEK-293 cell cytotoxicity detection (CellTiter-Glo). The format is cell-based. The following applies: incubation of 72 h, CellTiter-Glo luminescence. As to the method: HEK-293 cells were treated with compounds diluted in 0.4% DMSO, dilution was done according to the following protocol: (1) making 250× stock solution in DMSO from 10 mM by 4-fold dilution, total 8 doses were included; (2) making 2 solution in cell culture medium by transferring 1 μl 250× stock solution into 124 μl medium; (3) adding 50 μl of 2× solution to cells for incubation of 72 h.
25 μl of the CellTiter-Glo® Reagent [(PromegaCat #G9242)] was added to each well in the 96-well plate. The contents were mixed for 2 minutes on an orbital shaker to induce cell lysis. The plate was then allowed to incubate at room temperature for 10 minutes to stabilize luminescent signal. Luminescence was recorded on BMG PheraStar with luminescence protocol.
The IC50 value of a compound can be obtained by fitting the following equation: […]
Wherein, X and Y are known values, and IC50, Hillslope, Top and Bottom are the parameters obtained by fitting with software. Y is the inhibition percentage (calculated from the equation), X is the concentration of the compound; IC50 is the concentration of the compound when the 50% inhibition is reached. The smaller the IC50 value is, the stronger the inhibitory ability of the compound is. Vice versa, the higher the IC50 value is, the weaker the ability the inhibitory ability of the compound is; Hillslope represents the slope of the fitted curve, generally around 1*; Bottom represents the minimum value of the curve obtained by data fitting, which is generally 0%±20%; Top represents the maximum value of the curve obtained by data fitting, which is generally 100%±20%. The experimental data were fitted by calculating and analyzing with Dotmatics data analysis software.

Read-outs that look alike come from different tables or passages of the source.

Sequence of CDK1/Cyclin B1 (P06493 whole entry): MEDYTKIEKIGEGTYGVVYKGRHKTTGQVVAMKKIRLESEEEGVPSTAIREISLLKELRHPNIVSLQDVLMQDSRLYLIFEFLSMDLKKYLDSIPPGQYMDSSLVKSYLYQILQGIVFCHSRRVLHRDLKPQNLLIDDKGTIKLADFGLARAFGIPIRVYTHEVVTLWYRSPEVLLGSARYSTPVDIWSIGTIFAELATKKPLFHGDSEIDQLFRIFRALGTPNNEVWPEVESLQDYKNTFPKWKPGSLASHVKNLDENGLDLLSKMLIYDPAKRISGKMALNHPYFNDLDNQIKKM
Sequence of CDK1/Cyclin B1 (P14635 whole entry partner): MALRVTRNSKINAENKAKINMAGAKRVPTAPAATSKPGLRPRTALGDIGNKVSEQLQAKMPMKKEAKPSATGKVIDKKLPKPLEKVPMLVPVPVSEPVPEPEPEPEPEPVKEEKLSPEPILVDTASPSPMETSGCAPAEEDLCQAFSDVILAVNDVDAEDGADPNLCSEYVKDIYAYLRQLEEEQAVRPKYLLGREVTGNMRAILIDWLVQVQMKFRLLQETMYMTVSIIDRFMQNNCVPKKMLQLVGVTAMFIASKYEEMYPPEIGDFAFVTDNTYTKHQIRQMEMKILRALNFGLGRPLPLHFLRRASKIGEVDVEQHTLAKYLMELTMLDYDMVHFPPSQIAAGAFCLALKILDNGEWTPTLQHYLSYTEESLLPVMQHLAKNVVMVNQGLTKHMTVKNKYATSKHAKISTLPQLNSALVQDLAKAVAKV

As usually defined, the IC50 is the point on the concentration scale where inhibition reaches its midpoint. For the compound `O=C(NC1CCC1)O[C@H]1CC[C@@H](c2cc(Nc3ccc4c(c3F)CS(=O)(=O)C4)n[nH]2)C1` (relative stereo) [Example 12, cis-3-(3-((4-fluoro-2,2-dioxido-1,3-dihydrobenzo[c]thiophen-5-yl)amino)-1H-pyrazol-5-yl)cyclopentyl cyclobutylcarbamate], the IC50 against CDK2/Cyclin E1 was found to be 1.2 nM; against CDK1/Cyclin B1 it was 609 nM; in the test on HEK-293 cells (Homo sapiens, HEK293, 72 h), 499 nM.

Regarding `O=C(NCCC(F)(F)F)O[C@H]1CC[C@@H](c2cc(Nc3ccc4c(c3F)CS(=O)(=O)C4)n[nH]2)C1` (relative stereo) [Example 16, cis-3-(3-((4-fluoro-2,2-dioxido-1,3-dihydrobenzo[c]thiophen-5-yl)amino)-1H-pyrazol-5-yl)cyclopentyl (3,3,3-trifluoropropyl)carbamate], the IC50 against CDK2/Cyclin E1 worked out at 0.7 nM; against CDK1/Cyclin B1, 155 nM; in the test on HEK-293 cells (Homo sapiens, HEK293, 72 h) it was 687 nM.

Regarding `CC(C)(CO)NC(=O)O[C@H]1CC[C@@H](c2cc(Nc3ccc4c(c3F)CS(=O)(=O)C4)n[nH]2)C1` (relative stereo) [Example 19, cis-3-(3-((4-fluoro-2,2-dioxido-1,3-dihydrobenzo[c]thiophen-5-yl)amino)-1H-pyrazol-5-yl)cyclopentyl (1-hydroxy-2-methylpropan-2-yl)carbamate], the IC50 is 0.8 nM against CDK2/Cyclin E1; 181 nM on CDK1/Cyclin B1; 201 nM in the test on HEK-293 cells (Homo sapiens, HEK293, 72 h).

Turning to `O=C(NC1COC1)O[C@H]1CC[C@@H](c2cc(Nc3ccc4c(c3F)CS(=O)(=O)C4)n[nH]2)C1` (relative stereo) [Example 20, cis-3-(3-((4-fluoro-2,2-dioxido-1,3-dihydrobenzo[c]thiophen-5-yl)amino)-1H-pyrazol-5-yl)cyclopentyl oxetan-3-ylcarbamate], the IC50 on CDK2/Cyclin E1 is 31 nM; against CDK1/Cyclin B1, 4830 nM; with HEK-293 cells (Homo sapiens, HEK293, 72 h) it was more than 10000 nM.

In the case of `CN(C(=O)O[C@H]1CC[C@@H](c2cc(Nc3ccc4c(c3F)CS(=O)(=O)C4)n[nH]2)C1)C1CCOC1` (relative stereo) [Example 21, cis-3-(3-((4-fluoro-2,2-dioxido-1,3-dihydrobenzo[c]thiophen-5-yl)amino)-1H-pyrazol-5-yl)cyclopentyl methyl(tetrahydrofuran-3-yl)carbamate], the half-inhibitory concentration (IC50) against CDK2/Cyclin E1 was 24 nM; at CDK1/Cyclin B1, 2600 nM; in the test with HEK-293 cells (Homo sapiens, HEK293, 72 h), more than 10000 nM.

On to `O=C(NCC(F)(F)F)O[C@H]1CC[C@@H](c2cc(Nc3ccc4c(c3F)CS(=O)(=O)C4)n[nH]2)C1` (relative stereo) [Example 22, cis-3-(3-((4-fluoro-2,2-dioxido-1,3-dihydrobenzo[c]thiophen-5-yl)amino)-1H-pyrazol-5-yl)cyclopentyl (2,2,2-trifluoroethyl)carbamate], for which the IC50 was 4.5 nM at CDK2/Cyclin E1; 1050 nM against CDK1/Cyclin B1; more than 10000 nM in the test on HEK-293 cells (Homo sapiens, HEK293, 72 h).

With `O=C(NC1CCCC1)O[C@H]1CC[C@@H](c2cc(Nc3ccc4c(c3F)CS(=O)(=O)C4)n[nH]2)C1` (relative stereo) [Example 23, cis-3-(3-((4-fluoro-2,2-dioxido-1,3-dihydrobenzo[c]thiophen-5-yl)amino)-1H-pyrazol-5-yl)cyclopentyl cyclopentylcarbamate], the half-inhibitory concentration (IC50) on CDK2/Cyclin E1 was found to be 0.9 nM; on CDK1/Cyclin B1, 410 nM; in the test with HEK-293 cells (Homo sapiens, HEK293, 72 h) it was 2860 nM.

`CC(C)NC(=O)O[C@H]1CC[C@@H](c2cc(Nc3cc4c(cc3F)CS(=O)(=O)C4)n[nH]2)C1` (relative stereo) [Example 27, cis-3-(3-((6-fluoro-2,2-dioxido-1,3-dihydrobenzo[c]thiophen-5-yl)amino)-1H-pyrazol-5-yl)cyclopentyl isopropylcarbamate]: the IC50 against CDK2/Cyclin E1 is 33 nM; on CDK1/Cyclin B1, 7450 nM; in the test with HEK-293 cells (Homo sapiens, HEK293, 72 h), more than 10000 nM.

On to `Cc1cc2c(cc1Nc1cc([C@@H]3CC[C@H](OC(=O)NC(C)C)C3)[nH]n1)CS(=O)(=O)C2` (relative stereo) [Example 28, cis-3-(3-((6-methyl-2,2-dioxido-1,3-dihydrobenzo[c]thiophen-5-yl)amino)-1H-pyrazol-5-yl)cyclopentyl isopropylcarbamate], for which the IC50 against CDK2/Cyclin E1 is 9.4 nM; at CDK1/Cyclin B1 it was 2900 nM; with HEK-293 cells (Homo sapiens, HEK293, 72 h) it was more than 10000 nM.

In the case of `CC(C)NC(=O)O[C@H]1CC[C@@H](c2cc(Nc3cc4c(cc3F)C[S+]([O-])C4)n[nH]2)C1` (relative stereo) [Example 29, cis-3-(3-((6-fluoro-2-oxido-1,3-dihydrobenzo[c]thiophen-5-yl)amino)-1H-pyrazol-5-yl)cyclopentyl isopropylcarbamate], the IC50 is 576 nM at CDK2/Cyclin E1; more than 10000 nM at CDK1/Cyclin B1; more than 10000 nM with HEK-293 cells (Homo sapiens, HEK293, 72 h).

On to `CC(C)NC(=O)O[C@H]1CC[C@@H](c2cc(Nc3cc4c(cc3F)CSC4)n[nH]2)C1` (relative stereo) [Example 30, cis-3-(3-((6-fluoro-1,3-dihydrobenzo[c]thiophen-5-yl)amino)-1H-pyrazol-5-yl)cyclopentyl isopropylcarbamate], for which the IC50 is 383 nM at CDK2/Cyclin E1; more than 10000 nM against CDK1/Cyclin B1; more than 10000 nM with HEK-293 cells (Homo sapiens, HEK293, 72 h).

With `CC(C)NC(=O)O[C@H]1CC[C@@H](c2cc(Nc3ccc4c(c3F)C[S+]([O-])C4)n[nH]2)C1` (relative stereo) [Example 31, cis-3-(3-((4-fluoro-2-oxido-1,3-dihydrobenzo[c]thiophen-5-yl)amino)-1H-pyrazol-5-yl)cyclopentyl isopropylcarbamate], the IC50 at CDK2/Cyclin E1 is 5.3 nM; against CDK1/Cyclin B1, 3360 nM; in the test with HEK-293 cells (Homo sapiens, HEK293, 72 h), 1570 nM.

For the compound `CCN(C)C(=O)O[C@H]1CC[C@@H](c2cc(Nc3ccc4c(c3F)CS(=O)(=O)C4)n[nH]2)C1` (relative stereo) [Example 32, cis-3-(3-((4-fluoro-2,2-dioxido-1,3-dihydrobenzo[c]thiophen-5-yl)amino)-1H-pyrazol-5-yl)cyclopentyl ethyl(methyl)carbamate], the IC50 against CDK2/Cyclin E1 is 4.2 nM; at CDK1/Cyclin B1, 493 nM; in the test on HEK-293 cells (Homo sapiens, HEK293, 72 h) it was more than 10000 nM.

On to `CC(C)NC(=O)O[C@H]1CC[C@@H](c2cc(Nc3ccc4c(c3F)CSC4)n[nH]2)C1` (relative stereo) [Example 33, cis-3-(3-((4-fluoro-1,3-dihydrobenzo[c]thiophen-5-yl)amino)-1H-pyrazol-5-yl)cyclopentyl isopropylcarbamate], for which the IC50 is 22 nM against CDK2/Cyclin E1; 4880 nM on CDK1/Cyclin B1; more than 10000 nM in the test on HEK-293 cells (Homo sapiens, HEK293, 72 h).

For the compound `Cc1c(Nc2cc([C@@H]3CC[C@H](OC(=O)NC(C)C)C3)[nH]n2)ccc2c1CS(=O)(=O)C2` (relative stereo) [Example 35, cis-3-(3-((4-methyl-2,2-dioxido-1,3-dihydrobenzo[c]thiophen-5-yl)amino)-1H-pyrazol-5-yl)cyclopentyl isopropylcarbamate], the IC50 at CDK2/Cyclin E1 came to 0.4 nM; against CDK1/Cyclin B1 it was 169 nM; with HEK-293 cells (Homo sapiens, HEK293, 72 h), 739 nM.

On to `CC1(NC(=O)OC2CCC(c3cc(Nc4ccc5c(c4F)CS(=O)(=O)C5)n[nH]3)C2)CCOC1` (single isomer, unassigned) [Example 13a, cis-3-(3-((4-fluoro-2,2-dioxido-1,3-dihydrobenzo[c]thiophen-5-yl)amino)-1H-pyrazol-5-yl)cyclopentyl (3-methyltetrahydrofuran-3-yl)carbamate], for which the values for the IC50 against CDK2/Cyclin E1, on CDK1/Cyclin B1 and with HEK-293 cells (read-out: HEK293 IC50) were 0.5 nM, 493 nM and 2150 nM, respectively.
